Assay results as given in ChEMBL document CHEMBL1126816, “Inhibition of human leukocyte elastase. 6. Inhibition by 6-substituted penicillin esters” (Bioorg Med Chem Lett, 1993).

Each compound was assayed against T1, Neutrophil elastase (Homo sapiens, UniProt P08246) (assay: Inhibitory concentration required against Human Leukocyte Elastase (HLE) for 50% reduction in rate of hydrolysis of (suc-Ala-Ala-Pro-Ala-p-NA) peptide).
T1 sequence (P08246 whole entry): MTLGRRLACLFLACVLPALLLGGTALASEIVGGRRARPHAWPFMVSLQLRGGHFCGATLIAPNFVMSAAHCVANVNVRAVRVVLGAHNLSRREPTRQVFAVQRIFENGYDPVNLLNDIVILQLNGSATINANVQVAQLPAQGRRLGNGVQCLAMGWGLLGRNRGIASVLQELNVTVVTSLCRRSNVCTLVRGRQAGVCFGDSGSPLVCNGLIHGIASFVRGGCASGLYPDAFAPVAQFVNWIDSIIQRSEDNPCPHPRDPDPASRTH

Row | SMILES | IC50 [µM]
1 | CC1(C)S[C@@H]2[C@@H](NC(=O)C(F)(F)F)C(=O)N2[C@H]1C(=O)OCc1ccccc1 | 4
2 | CC1(C)[C@H](C(=O)OCc2ccccc2)N2C(=O)[C@@H](COC(=O)NCc3ccccc3)[C@H]2S1(=O)=O | 0.7
3 | CC1(C)[C@H](C(=O)OCc2ccccc2)N2C(=O)[C@H](NC(=O)C(F)(F)F)[C@H]2S1(=O)=O | 0.15
4 | CC(=O)O[C@H]1C(=O)N2[C@@H](C(=O)OCc3ccccc3)C(C)(C)S(=O)(=O)[C@H]12 | 0.2
5 | CC1(C)[C@H](C(=O)OCC(F)(F)F)N2C(=O)[C@H](NC(=O)C(F)(F)F)[C@H]2S1(=O)=O | 0.1
6 | C[C@H](OC(=O)NCc1ccccc1)[C@@H]1C(=O)N2[C@@H](C(=O)OCc3ccccc3)C(C)(C)S(=O)(=O)[C@H]12 | 0.3
7 | Cc1ccc(S(=O)(=O)O[C@H]2C(=O)N3[C@@H](C(=O)OCc4ccccc4)C(C)(C)S(=O)(=O)[C@H]23)cc1 | 0.05
8 | CC1(C)[C@H](C(=O)OCc2ccccc2)N2C(=O)[C@H](OC(=O)COc3ccccc3)[C@H]2S1(=O)=O | 5
9 | CO[C@H]1C(=O)N2[C@@H](C(=O)OCC(F)(F)F)C(C)(C)S(=O)(=O)[C@H]12 | 4
10 | COC(=O)[C@@H]1N2C(=O)[C@H](OC)[C@H]2S(=O)(=O)C1(C)C | 20
11 | CC(=O)O[C@H]1C(=O)N2[C@@H]1SC(C)(C)[C@@H]2C(=O)OCc1ccccc1 | 10
12 | CO[C@]1(NC(=O)C(F)(F)F)C(=O)N2[C@@H](C(=O)OCc3ccccc3)C(C)(C)S(=O)(=O)[C@@H]21 | 0.8
13 | CC(=O)O[C@H]1C(=O)N2[C@@H](C(=O)OCc3ccccc3)C(C)(C)[S+]([O-])[C@@H]12 (stereo not given in full) | 5
14 | CN(C(=O)C(F)(F)F)[C@@H]1C(=O)N2[C@@H](C(=O)OCc3ccccc3)C(C)(C)S(=O)(=O)[C@H]12 | 0.7
15 | CO[C@@]1(NC(=O)C(F)(F)F)C(=O)N2[C@@H](C(=O)OCc3ccccc3)C(C)(C)S(=O)(=O)[C@@H]21 | 9
16 | CC[C@@]1(NC(=O)C(F)(F)F)C(=O)N2[C@@H](C(=O)OCc3ccccc3)C(C)(C)S(=O)(=O)[C@@H]21 | 3
17 | CC1(C)[C@H](C(=O)OCC(F)(F)F)N2C(=O)[C@@H](NC(=O)C(F)(F)F)[C@H]2S1(=O)=O | 3
18 | CO[C@H]1C(=O)N2[C@@H](C(=O)OC(C)(C)C)C(C)(C)S(=O)(=O)[C@H]12 | > 20
19 | CC1(C)[C@H](C(=O)OCc2ccccc2)N2C(=O)[C@@](C)(NC(=O)C(F)(F)F)[C@H]2S1(=O)=O | > 20
20 | CC1(C)[C@H](C(=O)OCc2ccccc2)N2C(=O)[C@H](OC(=O)Cc3ccccc3)[C@H]2S1(=O)=O | 4
21 | C[C@H](OC(=O)NCc1ccccc1)[C@H]1C(=O)N2[C@@H](C(=O)OCc3ccccc3)C(C)(C)S(=O)(=O)[C@H]12 | 7
22 | CCO[C@H]1C(=O)N2[C@@H](C(=O)OCc3ccccc3)C(C)(C)S(=O)(=O)[C@H]12 | 2
23 | CC1(C)[C@H](C(=O)OCc2ccccc2)N2C(=O)[C@H](COC(=O)NCc3ccccc3)[C@H]2S1(=O)=O | 4
24 | CC1(C)[C@H](C(=O)OCc2ccccc2)N2C(=O)[C@H](OCc3ccccc3)[C@H]2S1(=O)=O | 4
25 | C[C@@H](OC(=O)NCc1ccccc1)[C@H]1C(=O)N2[C@@H](C(=O)OCc3ccccc3)C(C)(C)S(=O)(=O)[C@H]12 | 0.7
26 | CC1(C)S[C@@H]2[C@H](NC(=O)C(F)(F)F)C(=O)N2[C@H]1C(=O)OCc1ccccc1 | 12
27 | CC1(C)[C@H](C(=O)OCc2ccccc2)N2C(=O)[C@H](Cl)[C@H]2S1(=O)=O | 14
28 | C[C@@H](OC(=O)NCc1ccccc1)[C@@H]1C(=O)N2[C@@H](C(=O)OCc3ccccc3)C(C)(C)S(=O)(=O)[C@H]12 | 10
29 | CN(C(=O)C(F)(F)F)[C@H]1C(=O)N2[C@@H](C(=O)OCc3ccccc3)C(C)(C)S(=O)(=O)[C@H]12 | 0.2

These compounds were tested against T1, Neutrophil elastase (assay: Inhibitory concentration required against Human Leukocyte Elastase (HLE) for 50% reduction in rate of hydrolysis of (suc-Ala-Ala-Pro-Ala-p-NA) peptide;compound was inactive).

Row | SMILES | IC50 [µM]
30 | CC1(C)[C@H](C(=O)OCc2ccccc2)N2C(=O)[C@@H](NC(=O)C(F)(F)F)[C@H]2S1(=O)=O | 2
